# Data as given in US20250215016A1, “ISOXAZOLE-HETEROCYCLIC DERIVATIVE, PHARMACEUTICAL COMPOSITION AND USE” (SHANGHAI SIMR BIOTECHNOLOGY CO., LTD, priority 2022, published 2025).
# Assays:
# [1] = target: human α5β3γ2 receptor (α5-GABAA receptor) (Homo sapiens (Human), UniProt P18507+P31644); assay: Radioligand (3H-flunitrazepam) competition binding assay, BZD site; details: 3H-flunitrazepam 1 nM; HEK293 membranes expressing human α5β3γ2
# From the text: α, β and γ subunits are essential for the formation of a complete functional GABAA receptor. In this example, HEK293 cell strains stably expressing human α5-GABAA receptor (comprising α5β3γ2 subunit) and α2-GABAA receptor (comprising α2β3γ2 subunit) were constructed and screened, respectively, by liposome transfection method (Felgner, P. L., et al., Proceedings of the National Academy of Sciences, 1987, 84:7413-7417). The specific subunit protein sequences are as follows: α5 subunit (protein sequence can be found in GenBank accession number: NM_000810.3); α2 subunit (protein sequence can be found in GenBank accession number: NM_000807.4); β3 subunit (protein sequence can be found in GenBank accession number: NM_000814.5); γ2 subunit (protein sequence can be found in GenBank accession number: NM_000816.3).
# (§1) The above cell lines were subcultured. Amplification of α5β3γ2-HEK293 and α2β3γ2-HEK293 cells was used to test the affinity of the compounds to benzodiazepine site (BZD) of the GABAA receptor. During the passage of α5β3γ2-HEK293 cells, some of the suspended cells were spread on a glass slide pretreated with Poly-D-Lysine for electrophysiological testing.
# Flunitrazepam is a non-specific reagent that binds to the BZD site efficiently. The affinity of the compounds to the BZD sites of the human α5β3γ2 and α2β3γ2 receptors can be determined by competing the compound with ^3H-flunitrazepam (isotope ^3H-labeled flunitrazepam) for binding to these two receptors.
# Membrane preparation: HEK293 cells stably expressing human α5β3γ2 receptor or α2β3γ2 receptor were collected, suspended in 50 mM Tris-HCl buffer (pH=7.4), homogenized on ice by a homogenizer for 20 seconds 10 times, and centrifuged at 4° C., 1000 g for 10 min. The supernatant was collected, and the above steps were repeated. The supernatant was centrifuged (33800 g; centrifuge purchased from Thermo, rotor model: A27-8×50) at 4° C. for 60 min, and the precipitate was resuspended in Tris buffer (50 mM Tris-HCl, 10 mM MgCl2, 0.5 mM EDTA, 10% glycerol). The precipitate was the cell membrane. Protein content was determined by BCA (Bicinchoninic Acid) method (BCA kit from Pierce (Annoron)). The cell membrane was prepared into 1 ml aliquot and stored at −80° C.
# Radioligand competition binding assay: the assay was carried out in a 200 μL system (96-well plate from Agilent) with 100 μL of cell membrane. The concentration of ^3H-flunitazepam (from PerkinElmer, lot: NET567250 UC) was 1 nM and the concentration of test compound was in the range 1×10^−5-10^−6 M. Flumazenil (from Tocris; lot: 1318) was used as a control. 1 μL of 2 mM flumazenil (final concentration 10 μM) was added to the Low signal control well (Low control, LC) and 1 μL of DMSO (from Sigma aldrich, lot: 472301) was added to the High signal control well (High control, HC). The final target membrane protein concentration was 5 μg/well. All test compound sample stocks were 10 mM DMSO solutions. The working concentration of the samples is to dilute all samples with DMSO to 0.2 mM, and then perform 4-fold continuous gradient dilution for a total of 8 concentration gradients. The 96-well plate was sealed with a plate sealing membrane and then incubated on a shaker at room temperature for 1 hour. Meanwhile, GF/C filter plate was soaked with a plate soaking buffer (0.3% PEI, polyethyleneimine, purchased from Sigma aldrich, model: P314, stored at 4° C.) for at least 0.5 hours. After completion of binding incubation, the cells were collected with a cell collector onto the GF/C filter plate and washed four times with a plate washing buffer (50 mM Tris-HCl, pH 7.4, stored at 4° C.). […]
# α5-GABAA receptor = α5-GABAA receptor (Homo sapiens (Human), UniProt P18507+P31644); assay: Whole-cell patch clamp electrophysiology, inverse regulation activity in α5β3γ2-HEK293 cells; format: cell-based; details: compound 100 nM; GABA 0.05-0.06 μM (about EC7-8); clamped at −60 mV; read-out: Inverse regulation efficiency to α5-GABAA receptor
# From the text: α, β and γ subunits are essential for the formation of a complete functional GABAA receptor. […] The specific subunit protein sequences are as follows: α5 subunit (protein sequence can be found in GenBank accession number: NM_000810.3); α2 subunit (protein sequence can be found in GenBank accession number: NM_000807.4); β3 subunit (protein sequence can be found in GenBank accession number: NM_000814.5); γ2 subunit (protein sequence can be found in GenBank accession number: NM_000816.3).
# as §1
# The inverse regulation activity of the test drugs on α5-GABAA receptor was detected by an electrophysiological method. The specific method was as follows:
# Compound concentration setting: the final concentration of the compounds used for compound screening was 100 nM. GABA concentration was 0.05-0.06 μM (about EC7-8). […] The extracellular fluid (ECS) ingredients for electrophysiology were as follows: 150 mM NaCl, 5 mM KCl, 2.5 mM CaCl2, 1 mM MgCl2, 10 mM HEPES and 10 mM glucose (pH 7.4); the electrode internal solution (ICS) formula for electrophysiology was as follows: 140 mM CsCl, 11 mM EGTA, 10 mM HEPES, 2 mM CaCl2, 1 mM MgCl2, 4 mM MgATP, 2 mM TEA (pH 7.3). The above reagents were all purchased from Sigma aldrich. GABA (γ-aminobutyric acid, from sigma aldrich, lot: A5385) powder was prepared into a stock solution with pure water and then diluted in ECS. The compound was first prepared into a 4 mM stock solution with DMSO, and then gradually diluted in corresponding concentrations of GABA-ECS. The solutions were all prepared fresh prior to electrophysiological testing.
# Electrophysiological signal acquisition were performed by using EPC 10 amplifier and PatchMaster software (HEKA) or Axon 700 B amplifier and Clampex software (AXON). The recording electrode was made by drawing borosilicate glass (purchased from sutter), and has an electrode resistance of 4˜6 MΩ. Extracellular administration was carried out using ALA-VC-8PG (purchased from ALA, USA) system. A single independently grown cell was selected, and lysis was performed after the glass electrode and the cell forming a good seal, to form a whole cell mode. With the cellular membrane potential clamped at −60 mV, recording was carried out in the Gap-free mode. For the test, extracellular fluid was first applied extracellularly for about 20 seconds. After baseline (Iprebaseline) was stabilized, the extracellular fluid was switched to GABA-ECS. At this time, the current (Igaba) caused by GABA can be detected. At about 20-40 seconds, after the current stabilized, the extracellular fluid was switched to a mixed solution of the compound and GABA-ECS, until the current (Itreatment) caused by both the compound and GABA can be detected. Finally, the solution was switched to the extracellular fluid and the test was terminated after recording for 20-40 seconds.
# The experimental results were analyzed using PatchMaster v2x90.1 or PatchMaster v2x90.3 software (EPC 10 amplifier) and Clampex10.6 software (Axon700B amplifier). The current value of each stage was calculated according to the average value of the stabilized current under the corresponding conditions. We defined the control current as Igaba−Iprebaseline, and the current after compound treatment as Itreatment−Iprebaseline. The inverse regulation activity of the compounds is expressed as a percentage and is calculated according to the following formula: Inverse regulation efficiency=[(Itreatment−Igaba)/(Igaba−Iprebaseline)]×100%.
Ki [1],inhibition at 0.1 µM (α5-GABAA receptor),Compound
1.2 nM,38%,"Cc1onc(-c2ccc(F)cc2)c1COc1ccc(-c2nnn3c2COCC3)cn1 [Compound 1, 3-(6-((3-(4-fluorophenyl)-5-methylisoxazol-4-yl)methoxy)pyridin-3-yl)-6,7-dihydro-4H-[1,2,3]triazolo[5,1-c][1,4]oxazine]"
103 nM,16%,"Cc1onc(-c2ccc(F)cc2)c1COc1cnc(N2CCN3CCNC(=O)[C@@H]3C2)cn1 [Compound 6, (S)-8-(5-((3-(4-fluorophenyl)-5-methylisoxazol-4-yl)methoxy)pyrazin-2-yl) hexahydro-2H-pyrazino[1,2-a]pyrazin-1 (6H)-one]"
0.6 nM,45%,"Cc1onc(-c2ccc(F)cc2)c1COc1ccc(-c2nnn3c2COCC3)nn1 [Compound 11, 3-(6-((3-(4-fluorophenyl)-5-methylisoxazol-4-yl)methoxy)pyridazin-3-yl)-6,7-dihydro-4H-[1,2,3]triazolo[5,1-c][1,4]oxazine]"
12.5 nM,43%,"CCN1CCn2c(nnc2-c2ccc(OCc3c(-c4ccc(F)cc4)noc3C)nc2)C1=O [Compound 13, 7-ethyl-3-(6-((3-(4-fluorophenyl)-5-methylisoxazol-4-yl)methoxy)pyridin-3-yl)-6,7-dihydro-[1,2,4]triazolo[4,3-a]pyrazin-8(5H)-one]"
2.5 nM,49%,"Cc1onc(-c2ccc(F)cc2)c1COc1ccc(-c2nnc3n2CCN(C)C3=O)nn1 [Compound 14, 3-(6-((3-(4-fluorophenyl)-5-methylisoxazol-4-yl)methoxy)pyridazin-3-yl)-7-methyl-6,7-dihydro-[1,2,4]triazolo[4,3-a]pyrazin-8(5H)-one]"
0.54 nM,50%,"Cc1onc(-c2ccc(F)cc2)c1COc1ccc(-c2nnc3n2CCC3)nn1 [Compound 22, 4-(((6-(6,7-dihydro-5H-pyrrolo[2,1-c][1,2,4]triazol-3-yl)pyridazin-3-yl)oxy)methyl)-3-(4-fluorophenyl)-5-methylisoxazole]"
22.1 nM,50%,"Cc1onc(-c2ccc(F)cc2)c1COc1ccc(-c2nnc3n2CCCO3)cn1 [Compound 25, 3-(6-((3-(4-fluorophenyl)-5-methylisoxazol-4-yl)methoxy)pyridin-3-yl)-6,7-dihydro-5H-[1,2,4]triazolo[3,4-b][1,3]oxazine]"
32.9 nM,42%,"Cc1onc(-c2ccc(F)cc2)c1COc1ccc(-c2ncc3n2CCOC3)cn1 [Compound 28, 3-(6-((3-(4-fluorophenyl)-5-methylisoxazol-4-yl)methoxy)pyridin-3-yl)-5,6-dihydro-8H-imidazo[5,1-c][1,4]oxazine]"
0.77 nM,45%,"Cc1onc(-c2ccc(F)cc2)c1COc1ccc(-c2nnc3n2CCS(=O)(=O)C3)nn1 [Compound 29, 3-(6-((3-(4-fluorophenyl)-5-methylisoxazol-4-yl)methoxy)pyridazin-3-yl)-5,6-dihydro-8H-[1,2,4]triazolo[3,4-c][1,4]thiazine 7,7-dioxide]"
2.44 nM,39%,"Cc1onc(-c2ccc(F)cc2)c1COc1ccc(N2CCn3c(C)nnc3C2)nn1 [Compound 34, 3-(4-fluorophenyl)-5-methyl-4-(((6-(3-methyl-5,6-dihydro-[1,2,4]triazolo[4,3-a]pyrazin-7(8H)-yl)pyridazin-3-yl)oxy)methyl)isoxazole]"
6.31 nM,44%,"Cc1onc(-c2ccc(F)cc2)c1COc1ccc(-c2cc3n(c(=O)n2)CC24CC(CN32)C4)cn1 [Compound 39, 3-(6-((3-(4-fluorophenyl)-5-methylisoxazol-4-yl)methoxy)pyridin-3-yl)-7,8-dihydro-1H,6H,9H-7,8a-methanopyrrolo[1′,2′:3,4]imidazo[1,2-c]pyrimidin-1-one]"
